Assay results as given in PubChem BioAssay (NCI).
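Step 1: Grow cells in 96-well plates. Step 2: Expose to compound for 48 hours at 5 concentrations. Step 3: Interpolate endpoints linearly; if unreached, use highest concentration. The concentration for 50% growth inhibition is given as GI50. TGI denotes the concentration required for complete inhibition of growth.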

Legend:
Experiment in all cases: NCI anticancer screen, dose series, 48 h
786-0 renal = system: 786-0 renal
A498 renal = system: A498 renal
A549 NSCLC = system: A549 NSCLC
ACHN renal = system: ACHN renal
BT-549 breast = system: BT-549 breast
CAKI-1 renal = system: CAKI-1 renal
COLO 205 colon = system: COLO 205 colon
DU-145 prostate = system: DU-145 prostate
EKVX NSCLC = system: EKVX NSCLC
HCT-116 colon = system: HCT-116 colon
HCT-15 colon = system: HCT-15 colon
HOP-62 NSCLC = system: HOP-62 NSCLC
HOP-92 NSCLC = system: HOP-92 NSCLC
HS 578T breast = system: HS 578T breast
HT29 colon = system: HT29 colon
IGROV1 ovarian = system: IGROV1 ovarian
K-562 leukemia = system: K-562 leukemia
KM12 colon = system: KM12 colon
LOX IMVI melanoma = system: LOX IMVI melanoma
M14 melanoma = system: M14 melanoma
MALME-3M melanoma = system: MALME-3M melanoma
MCF7 breast = system: MCF7 breast
MDA-MB-231 breast = system: MDA-MB-231 breast
MDA-MB-435 = system: MDA-MB-435
MDA-N = system: MDA-N
MOLT-4 leukemia = system: MOLT-4 leukemia
NCI-H226 lung = system: NCI-H226 lung
NCI-H23 lung = system: NCI-H23 lung
NCI-H460 lung = system: NCI-H460 lung
NCI-H522 lung = system: NCI-H522 lung
NCI/ADR-RES ovarian = system: NCI/ADR-RES ovarian
OVCAR-3 ovarian = system: OVCAR-3 ovarian
OVCAR-4 ovarian = system: OVCAR-4 ovarian
OVCAR-5 ovarian = system: OVCAR-5 ovarian
OVCAR-8 ovarian = system: OVCAR-8 ovarian
PC-3 prostate = system: PC-3 prostate
RPMI-8226 leukemia = system: RPMI-8226 leukemia
RXF 393 renal = system: RXF 393 renal
SF-268 CNS = system: SF-268 CNS
SF-295 CNS = system: SF-295 CNS
SF-539 CNS = system: SF-539 CNS
SK-MEL-2 melanoma = system: SK-MEL-2 melanoma
SK-MEL-28 melanoma = system: SK-MEL-28 melanoma
SK-MEL-5 melanoma = system: SK-MEL-5 melanoma
SK-OV-3 ovarian = system: SK-OV-3 ovarian
SN12C renal = system: SN12C renal
SNB-19 CNS = system: SNB-19 CNS
SNB-75 CNS = system: SNB-75 CNS
SR leukemia = system: SR leukemia
T-47D breast = system: T-47D breast
TK-10 renal = system: TK-10 renal
U251 CNS = system: U251 CNS
UACC-257 melanoma = system: UACC-257 melanoma
UACC-62 melanoma = system: UACC-62 melanoma
UO-31 renal = system: UO-31 renal
CCRF-CEM leukemia = system: CCRF-CEM leukemia
HL-60(TB) leukemia = system: HL-60(TB) leukemia
SW-620 colon = system: SW-620 colon

`Cn1c(=O)c2[nH]c(CSCc3ccccc3)nc2n(C)c1=O` was tested, and the TGI (786-0 renal) was > 100 µM, the TGI (A498 renal) was > 100 µM and the TGI (A549 NSCLC) was > 100 µM. The TGI (ACHN renal) was > 100 µM, the TGI (BT-549 breast) was > 100 µM and the TGI (CAKI-1 renal) was > 100 µM. For the same compound, the TGI (COLO 205 colon) was > 100 µM, the TGI (DU-145 prostate) was > 100 µM and the TGI (EKVX NSCLC) was > 100 µM. For the same compound, the TGI (HCT-116 colon) was > 100 µM, the TGI (HCT-15 colon) was > 100 µM and the TGI (HOP-62 NSCLC) was > 100 µM. For the same compound, the TGI (HOP-92 NSCLC) was > 100 µM, the TGI (HS 578T breast) was > 100 µM and the TGI (HT29 colon) was > 100 µM. For the same compound, the TGI (IGROV1 ovarian) was > 100 µM, the TGI (K-562 leukemia) was > 100 µM and the TGI (KM12 colon) was > 100 µM. For the same compound, the TGI (LOX IMVI melanoma) was > 100 µM, the TGI (M14 melanoma) was > 100 µM and the TGI (MALME-3M melanoma) was > 100 µM. The TGI (MCF7 breast) was > 100 µM, the TGI (MDA-MB-231 breast) was > 100 µM and the TGI (MDA-MB-435) was > 100 µM. The TGI (MDA-N) was > 100 µM, the TGI (MOLT-4 leukemia) was > 100 µM and the TGI (NCI-H226 lung) was > 100 µM. The TGI (NCI-H23 lung) was > 100 µM, the TGI (NCI-H460 lung) was > 100 µM and the TGI (NCI-H522 lung) was > 100 µM. For the same compound, the TGI (NCI/ADR-RES ovarian) was > 100 µM, the TGI (OVCAR-3 ovarian) was > 100 µM and the TGI (OVCAR-4 ovarian) was > 100 µM. For the same compound, the TGI (OVCAR-5 ovarian) was > 100 µM, the TGI (OVCAR-8 ovarian) was > 100 µM and the TGI (PC-3 prostate) was > 100 µM. For the same compound, the TGI (RPMI-8226 leukemia) was > 100 µM, the TGI (RXF 393 renal) was > 100 µM and the TGI (SF-268 CNS) was > 100 µM. For the same compound, the TGI (SF-295 CNS) was > 100 µM, the TGI (SF-539 CNS) was > 100 µM and the TGI (SK-MEL-2 melanoma) was > 100 µM. The TGI (SK-MEL-28 melanoma) was > 100 µM, the TGI (SK-MEL-5 melanoma) was > 100 µM and the TGI (SK-OV-3 ovarian) was > 100 µM. The TGI (SN12C renal) was > 100 µM, the TGI (SNB-19 CNS) was > 100 µM and the TGI (SNB-75 CNS) was > 100 µM. The TGI (SR leukemia) was > 100 µM, the TGI (T-47D breast) was > 100 µM and the TGI (TK-10 renal) was > 100 µM. The TGI (U251 CNS) was > 100 µM, the TGI (UACC-257 melanoma) was > 100 µM and the TGI (UACC-62 melanoma) was > 100 µM. The TGI (UO-31 renal) was > 100 µM.

In the case of `C/C(=N\[N+](C)(C)C)c1ccc(C)c(C)c1`, the GI50 (786-0 renal) is reported as > 100 µM, the TGI (786-0 renal) is reported as > 100 µM and the TGI (A498 renal) is reported as > 100 µM. The TGI (A549 NSCLC) was > 100 µM, the GI50 (ACHN renal) was > 100 µM and the TGI (ACHN renal) was > 100 µM. For the same compound, the TGI (BT-549 breast) was > 100 µM, the GI50 (CAKI-1 renal) was > 100 µM and the TGI (CAKI-1 renal) was > 100 µM. The TGI (CCRF-CEM leukemia) was > 100 µM, the TGI (COLO 205 colon) was 38.3 µM and the TGI (DU-145 prostate) was > 100 µM. For the same compound, the TGI (EKVX NSCLC) was > 100 µM, the TGI (HCT-116 colon) was > 100 µM and the GI50 (HCT-15 colon) was > 100 µM. The TGI (HCT-15 colon) was > 100 µM, the TGI (HL-60(TB) leukemia) was > 100 µM and the GI50 (HOP-62 NSCLC) was > 100 µM. For the same compound, the TGI (HOP-62 NSCLC) was > 100 µM, the GI50 (HOP-92 NSCLC) was > 100 µM and the TGI (HOP-92 NSCLC) was > 100 µM. For the same compound, the GI50 (HS 578T breast) was > 100 µM, the TGI (HS 578T breast) was > 100 µM and the TGI (HT29 colon) was > 100 µM. For the same compound, the TGI (IGROV1 ovarian) was > 100 µM, the TGI (K-562 leukemia) was > 100 µM and the TGI (KM12 colon) was > 100 µM. For the same compound, the GI50 (LOX IMVI melanoma) was > 100 µM, the TGI (LOX IMVI melanoma) was > 100 µM and the GI50 (M14 melanoma) was > 100 µM. For the same compound, the TGI (M14 melanoma) was > 100 µM, the GI50 (MALME-3M melanoma) was > 100 µM and the TGI (MALME-3M melanoma) was > 100 µM. The GI50 (MCF7 breast) was > 100 µM, the TGI (MCF7 breast) was > 100 µM and the GI50 (MDA-MB-231 breast) was > 100 µM. For the same compound, the TGI (MDA-MB-231 breast) was > 100 µM, the TGI (MDA-MB-435) was > 100 µM and the TGI (MDA-N) was > 100 µM. The GI50 (MOLT-4 leukemia) was > 100 µM, the TGI (MOLT-4 leukemia) was > 100 µM and the TGI (NCI-H23 lung) was > 100 µM. For the same compound, the TGI (NCI-H460 lung) was > 100 µM, the TGI (NCI-H522 lung) was > 100 µM and the GI50 (NCI/ADR-RES ovarian) was > 100 µM. The TGI (NCI/ADR-RES ovarian) was > 100 µM, the TGI (OVCAR-3 ovarian) was > 100 µM and the TGI (OVCAR-4 ovarian) was > 100 µM. For the same compound, the TGI (OVCAR-5 ovarian) was > 100 µM, the TGI (OVCAR-8 ovarian) was > 100 µM and the TGI (PC-3 prostate) was > 100 µM. For the same compound, the TGI (RPMI-8226 leukemia) was > 100 µM, the TGI (RXF 393 renal) was > 100 µM and the GI50 (SF-268 CNS) was > 100 µM. The TGI (SF-268 CNS) was > 100 µM, the TGI (SF-295 CNS) was > 100 µM and the GI50 (SF-539 CNS) was > 100 µM. For the same compound, the TGI (SF-539 CNS) was > 100 µM, the TGI (SK-MEL-2 melanoma) was > 100 µM and the GI50 (SK-MEL-28 melanoma) was > 100 µM. The TGI (SK-MEL-28 melanoma) was > 100 µM, the TGI (SK-MEL-5 melanoma) was > 100 µM and the TGI (SK-OV-3 ovarian) was > 100 µM. For the same compound, the TGI (SN12C renal) was 69.7 µM, the TGI (SNB-19 CNS) was > 100 µM and the TGI (SNB-75 CNS) was > 100 µM. The TGI (SR leukemia) was > 100 µM, the TGI (SW-620 colon) was > 100 µM and the TGI (T-47D breast) was > 100 µM. The TGI (TK-10 renal) was > 100 µM, the TGI (U251 CNS) was > 100 µM and the TGI (UACC-257 melanoma) was 26.7 µM. The TGI (UACC-62 melanoma) was > 100 µM and the TGI (UO-31 renal) was > 100 µM.
